For data set [1], the system named is LPS-treated mice. As to the kind of experiment: Tail suspension test (TST) in LPS-induced inflammatory model of depression. Conditions: for immobility time in TST: TST 3 h after.
The subject of data set [2] is normal mice. The data set can be described thus: Hyperlocomotion test (side effects). The conditions noted are these: for time after administration at which enhanced amount of locomotion returned to a normal value: ketamine 10 mg/kg, norketamine 20 mg/kg, (S)-ketamine 10 mg/kg.
Data set [3] has as its system normal mice. The data set can be described thus: Prepulse inhibition test (side effects).
The subject of data set [4] is LPS-treated mice. The data set can be described thus: Forced swimming test (FST) in LPS-induced inflammatory model of depression. The conditions noted are these: for immobility time in FST: FST 5 h after.
The test system of data set [5] is social defeat stress mice. The data set can be described thus: 1% sucrose preference test (SPT) in social defeat stress model of depression. The conditions noted are these: 10 mg/kg intraperitoneally, seven days after administration.
The subject of data set [6] is social defeat stress mice. As to the kind of experiment: Tail suspension test (TST) in social defeat stress model of depression. The conditions noted are these: 10 mg/kg intraperitoneally; for immobility time in TST: single administration. Type of data set: in vivo. On the procedure: (§1) The TST was performed as follows. […] The FST was performed as follows. […] The LMT was performed as follows. […] The SPT was performed as follows.

The subject of data set [7] is social defeat stress mice. The data set can be described thus: Forced swimming test (FST) in social defeat stress model of depression. Type of data set: in vivo. Conditions: 10 mg/kg intraperitoneally; for immobility time in FST: single administration. As to the method:
as §1

Data set [8] relates to social defeat stress mice. The data set can be described thus: Golgi staining, spine density in brain regions of social defeat stress mice. Type of data set: in vivo. The conditions noted are these: 10 mg/kg intraperitoneally, eight days after administration.
Data set [9] deals with normal mice. The data set can be described thus: Conditioned place preference test (CPP) (side effects). Conditions: 20 mg/kg; vs saline.
Data set [10] can be described thus: Plasma concentration of (S)-norketamine after peroral administration of (S)-norketamine derivative. Type of data set: in vivo. The conditions noted are these: mice; 30 mg/kg perorally; 15 min to 8 h. On the procedure:
The pharmacokinetic profile of an (S)-norketamine derivative was investigated through measurement of the blood concentration of (S)-norketamine after administration thereof.
The obtained blood plasma was placed into a polypropylene microtube and stored in a freezer at −80° C.
The plasma concentration of (S)-norketamine was measured by the method described below.
STD (standard) solution (10 μL) was added to mouse plasma (20 μL) as a calibration curve sample. A mixture of acetonitrile/water (1:1, v/v) was added to a sample, a blank sample, and a QC (quality control) sample.
Agitation was performed for 10 seconds, and I.S. (internal standard) solution (Norketamine-D4: 10 ng/mL) (100 μL) was added. A mixture of acetonitrile and methanol (=9:1) was added to the blank sample.
Agitation was performed for 30 seconds, followed by centrifugation at room temperature and 16,000×g for three minutes. The supernatant (80 μL) was transferred to a new microtube, and 0.001 mol/L ammonium hydrogen carbonate (100 μL) was added to the microtube.
Agitation was performed for 10 seconds, followed by centrifugation at room temperature and 16,000×g for two minutes.
The (S)-norketamine concentration was measured through HPLC.
The measurement conditions are as follows.

Data set [11] has as its system NMDA receptor. Conditions: Non-Patent Document 12; cited from earlier work.
The mark [12] stands for this setting: 10 mg/kg intraperitoneally, vs LPS-treated mice administered saline.
Setting [13] is: 10 mg/kg each, intraperitoneally.
The mark [14] stands for this setting: 5, 10, or 20 mg/kg intraperitoneally 23 h after LPS.

Regarding `CNC1(c2ccccc2Cl)CCCCC1=O` (racemic) [ketamine], the “immobility time in TST” value in data set [1] (setting [12]) is on record as “significantly reduced immobility time”. The “amount of locomotion (hyperlocomotion effect)” value in [2] (10 mg/kg, 10 minutes after administration, vs normal mice administered saline) was “significant increase in amount of locomotion”. For the same molecule, the “time after administration at which enhanced amount of locomotion returned to a normal value” (shortened to “time after administration”) in data set [2] is 20 min. Besides, in data set [3] (10 mg/kg, prepulse stimulation at 77 dB or 81 dB), the prepulse inhibition deficit entry is reported as “induced prepulse inhibition deficit”. The “immobility time in FST” value in data set [4] (setting [12]) is on record as “significantly reduced immobility time”.
In the case of `N[C@@]1(c2ccccc2Cl)CCCCC1=O` [(R)-norketamine], the “sucrose consumption preference in SPT” value in data set [5] is given as “did not restore it”. Besides, in data set [6], the “immobility time in TST” value was “did not exhibit an antidepressant effect”. Also, in data set [7], the “immobility time in FST” value is reported as “did not exhibit an antidepressant effect”. In addition, in data set [8], the “spine density in frontal cortex (prelimbic region), hippocampus CA3 region and hippocampal dentate gyrus” value is listed as “did not exhibit the effect of increasing the spine density”; the “spine density in nucleus accumbens (core region and shell region)” value is “not affected”.
As for `CN[C@]1(c2ccccc2Cl)CCCCC1=O` [(S)-ketamine], the “amount of locomotion (hyperlocomotion effect)” value in data set [2] (10 mg/kg, 10 minutes and 20 minutes after administration, vs normal mice administered saline) was “significant increase in amount of locomotion”. Moreover, the “time after administration” value in [2] was 30 min. Moreover, the prepulse inhibition deficit entry in data set [3] (10 mg/kg) was “induced prepulse inhibition deficit”. Further, in data set [9], the “CPP score (conditioned place preference, drug dependence)” value is “significantly increase the CPP score”.
For `N[C@]1(c2ccccc2Cl)CCCCC1=O` [(S)-norketamine], in data set [2] (5, 10, or 20 mg/kg), the “amount of locomotion (hyperlocomotion effect)” value is “did not affect the amount of locomotion”. Besides, the “sucrose consumption preference in SPT” value in data set [5] is “significantly restored the sucrose consumption preference”. For the same molecule, the prepulse inhibition deficit result in data set [3] (5, 10, or 20 mg/kg) was “did not induce prepulse inhibition deficit”. Further, in data set [6], the “antidepressant effect in TST compared with (R)-norketamine” value is “significantly higher antidepressant effect than (R)-norketamine” and the “immobility time in TST” value is “significantly reduced immobility time”. Further, in data set [7], the “antidepressant effect in FST compared with (R)-norketamine” value is “significantly higher antidepressant effect than (R)-norketamine” and the “immobility time in FST” value is reported as “significantly reduced immobility time”. In addition, in [9], the “CPP score (conditioned place preference, drug dependence)” value is “did not increase the CPP score”. In [8], the “spine density in frontal cortex (prelimbic region), hippocampus CA3 region and hippocampal dentate gyrus” value is given as “significantly increased the spine density”; the “spine density in nucleus accumbens (core region and shell region)” value is listed as “not affected”.
In the case of `Cc1oc(=O)oc1COC(=O)N[C@]1(c2ccccc2Cl)CCCCC1=O` [Compound 1, (5-methyl-2-oxo-1,3-dioxol-4-yl)methyl-(S)-(1-(2-chlorophenyl)-2-oxocyclohexyl) carbamate], the “decrease of blood concentration compared with (S)-norketamine derivative (2)” value in data set [10] is listed as “decreased more slowly”.
As for `NC1(c2ccccc2Cl)CCCCC1=O` (centres unmarked) [norketamine], in data set [1] (setting [13]), the “antidepressant effect in TST compared with ketamine” value is given as “significantly stronger compared to ketamine”. Also, the entries for the “immobility time in TST” value in data set [1] (setting [12]) and in [1] (setting [14]) were “significantly reduced immobility time” and “dose-dependently reduced immobility time”, respectively. Further, the “affinity for an NMDA receptor, factor lower than ketamine” value in data set [11] is recorded as “about 6.8 fold”. The “amount of locomotion (hyperlocomotion effect)” value in [2] (5 mg/kg or 10 mg/kg) was “did not affect the amount of locomotion”; in [2] (20 mg/kg, 10 minutes after administration, vs normal mice administered saline) it was “significant increase in amount of locomotion”. Moreover, the “amount of locomotion compared with ketamine (10 mg/kg)” value in data set [2] (20 mg/kg, 10 minutes after administration) is given as “significantly lower than that in the mice administered ketamine (10 mg/kg)”. The “time after administration” value in [2] stood at 20 min. The prepulse inhibition deficit result in data set [3] (5 mg/kg or 10 mg/kg) is reported as “did not induce prepulse inhibition deficit”; in data set [3] (20 mg/kg, prepulse stimulation at 81 dB), “significantly induced prepulse inhibition deficit”. In addition, in data set [4] (setting [13]), the “antidepressant effect in FST compared with ketamine” value is on record as “significantly stronger compared to ketamine”. Also, the results for the “immobility time in FST” value in [4] (setting [12]) and in data set [4] (setting [14]) were “significantly reduced immobility time” and “dose-dependently reduced immobility time”, respectively.

The values above are taken from US20190240184A1, “PHARMACEUTICAL APPLICATIONS FOR (S)-N[…] SALTS THEREOF” (NATIONAL UNIVERSITY CORPORATION CHIBA UNIVERSITY, priority 2016, published 2019).
